US20220257491A1, “Prebiotic Oral Care Compositions and Methods” (Colgate-Palmolive Company, priority 2021, published 2022)
Values joined by “and” are separate entries in the source; they are usually repeats but may differ in a detail not shown here. Equal entries are not always repeated.

Tested on: multi-species biofilm
Experiment: Relative multi-species biofilm composition (groups of bacterial species)
Assay type: cell-based
Conditions: for Relative abundance Beneficials/Commensals / Relative abundance Cariogenic Pathogens / Relative abundance Periodontal Pathogens / Relative abundance Beneficial or commensals: mean±SD n=3
Experimental: Biofilms are grown vertically on Calcium Deficient Hydroxyapatite (CAD-HA) disks (Hitemco Medical, Old Bethpage, USA) using the Amsterdam Active Adhesion model. Biofilms are allowed to establish during 24 h (37° C., 170 rpm) under micro-aerophilic conditions (6% O2, 7% CO2, 7% H2, 80% N2). After this 24 h, disks are rinsed 3 times a day for 3 minutes (RT, 250 rpm), for 3 consecutive days, by transferring the lid containing the disks to a new 24-well plate containing 2 mL/well of the appropriate substrate solution. As a negative control, PBS (pH 5.7) without substrate supplementation is used. After each rinsing step, disks are shortly dip-rinsed in a new 24-well plate containing fresh modified BHI medium (2 mL/well) to remove remaining substrate traces. Subsequently, the lid is transferred to another 24-well plate containing fresh modified BHI medium (2 mL/well), followed by incubation (micro-aerophilic, 37° C., 170 rpm) until the next rinsing step.
NADM, N-acetyl-D-glucosamine (“NADG”) and D-(+)-mannose are selected to determine their effects on multi-species biofilm composition. […] decrease in absolute numbers in at least four of the pathogenic bacterial species tested in the assay, compared to the control, the results of which are described in Table 1 below. Absolute abundances of bacterial species are shown as mean±SD (n=3) logarithmic values of the genome equivalents per millilitre (log(Geq/mL)).
Relative abundances of the different groups (beneficial/commensals, periodontal pathogens, cariogenic pathogens) of bacterial species are shown as mean±SD (n=3) percentage of the genome equivalents per millilitre (% (Geq/mL)). […] NADM: N-acetyl-D-mannosamine; NADG: N-acetyl-D-glucosamine.

[1] = substrate 1%(w/v) in PBS, listed as D-(+)-mannose
[2] = substrate 1 M in PBS, listed as D-(+)-mannose
[3] = substrate 1 M, range over the species

Row | SMILES | Relative abundance Beneficials/Commensals (substrate 1%(w/v) in PBS) | Relative abundance Cariogenic Pathogens (substrate 1%(w/v) in PBS) | Relative abundance Periodontal Pathogens (substrate 1%(w/v) in PBS) | Relative abundance Beneficials/Commensals [1] | Relative abundance Periodontal Pathogens [1] | Relative abundance Beneficial or commensals (substrate 1 M in PBS) | Relative abundance Cariogenic Pathogens (substrate 1 M in PBS) | Relative abundance Periodontal Pathogens (substrate 1 M in PBS) | Relative abundance Beneficial or commensals [2] | Relative abundance Periodontal Pathogens [2] | Reduction of A. actinomycetemcomitans, F. nucleatum, P. gingivalis, A. naeslundii and A. viscosus numbers vs control [3] | Decreases in A. actinomycetemcomitans, F. nucleatum, P. gingivalis, P. intermedia and S. sobrinus numbers vs control [3]
1 | O=C[C@@H](O)[C@@H](O)[C@H](O)[C@H](O)CO [D-mannose, D-(+)-mannose] | 84.18 ± 2.04 % (Geq/mL) | 0.21 ± 0.04 % (Geq/mL) | 15.61 ± 2.00 % (Geq/mL) | 84.18±2.04 % (Geq/mL) | 15.61±2.00 % (Geq/mL) | 96.83 ± 0.62 % (Geq/mL) | 2.40 ± 0.85 % (Geq/mL) | 0.77 ± 0.82 *^, #1 % (Geq/mL) | 96.83±0.62 % (Geq/mL) | 0.77±0.82 % (Geq/mL) | −1.2 to −3.7 log(Geq/mL) | 
2 | CC(=O)N[C@H]1C(O)O[C@H](CO)[C@@H](O)[C@@H]1O (stereo partly drawn) [NADG, N-acetyl-D-glucosamine, reference compound] | 60.07 ± 8.25 % (Geq/mL) | 0.66±0.27 % (Geq/mL) | 39.27 ± 7.98 % (Geq/mL) |  |  | 97.52±0.82 % (Geq/mL) | 2.35 ± 0.92 % (Geq/mL) | 0.13±0.10 % (Geq/mL) and 0.13 ± 0.10 *^, #1 % (Geq/mL) |  |  |  | −1.5 to −2.5 log(Geq/mL)
3 | CC(=O)N[C@@H]1C(O)O[C@H](CO)[C@@H](O)[C@@H]1O (stereo partly drawn) [NADM, N-acetyl-D-mannosamine] | 61.62 ± 4.88 % (Geq/mL) | 0.05 ± 0.01 % (Geq/mL) | 38.32 ± 4.86 % (Geq/mL) |  |  | 97.61±0.28 % (Geq/mL) | 0.06 ± 0.04 % (Geq/mL) | 2.34±0.31 % (Geq/mL) and 2.34 ± 0.31^#2, 3 % (Geq/mL) |  |  |  | 
